A short description of this test: Inhibition of serum-stimulated proliferation of mouse ERBB2 transfected NIH3T3 cell line after 24 hrs.

These results are taken from BindingDB's records for doi:10.1021/jm0600390 (Mcgill University Health Center/Royal Victoria Hospital, 2006).

Broadly, the IC50 is the midpoint of a concentration-inhibition curve. As for `Cc1cccc(Nc2ncnc3ccc(NC(=O)NCCCl)cc23)c1` [1-(2-chloroethyl)-3-{[4-(3-methylphenyl)amino]quinazolin-6-yl}urea], half-maximal inhibition (IC50) required 2100 nM. That is a single-digit micromolar value.

Compound `CNc1ccc2ncnc(Nc3cccc(Br)c3)c2c1` [4-N-(3-bromophenyl)-6-N-methylquinazoline-4,6-diamine] had a concentration for half-maximal inhibition (IC50) of 170 nM.

`Cc1cccc(Nc2ncnc3ccc(N(C)C(=O)N(CCCl)N=O)cc23)c1` [1-(2-chloroethyl)-1-nitroso-3-methyl-3-{[4-(3-methylphenyl)amino]quinazolin-6-yl}urea] registered a 50% inhibitory concentration (IC50) of 6880 nM. This IC50 is about 40-fold higher than that of the compound before.

In turn, `Nc1ccc2ncnc(Nc3cccc(Br)c3)c2c1` had an IC50 of 670 nM.

`O=NN(CCCl)C(=O)Nc1ccc2ncnc(Nc3cccc(Cl)c3)c2c1` [1-(2-Chloroethyl)-1-nitroso-3-{[4-(3-chlorophenyl)amino]quinazolin-6-yl}urea] returned an IC50 of 5400 nM.

Take `CN(C(=O)N(CCCl)N=O)c1ccc2ncnc(Nc3cccc(Br)c3)c2c1` [1-(2-chloroethyl)-1-nitroso-3-methyl-3-{[4-(3-bromophenyl)amino]quinazolin-6-yl}urea]: 3060 nM corresponded to half-maximal inhibition (IC50).

Consider `CN(C(=O)N(CCCl)N=O)c1ccc2ncnc(Nc3cccc(Cl)c3)c2c1` [1-(2-chloroethyl)-1-nitroso-3-methyl-3-{[4-(3-chloro-phenyl)amino]quinazolin-6-yl}urea], for which the concentration for half-maximal inhibition (IC50) worked out at 680 nM.

`O=C(NCCCl)Nc1ccc2ncnc(Nc3cccc(Br)c3)c2c1` [1-(2-chloroethyl)-3-{[4-(3-bromophenyl)amino]quinazolin-6-yl}urea] came in with a concentration for half-maximal inhibition (IC50) of 1770 nM.

As for `O=C(NCCCl)Nc1ccc2ncnc(Nc3cccc(Cl)c3)c2c1` [1-(2-chloroethyl)-3-{[4-(3-chlorophenyl)amino]quinazolin-6-yl}urea], 1350 nM corresponded to half-maximal inhibition (IC50).

Compound `Cc1cccc(Nc2ncnc3ccc(N)cc23)c1` [N4-(3-methylphenyl)-4,6-quinazolinediamine] gave a half-inhibitory concentration (IC50) of 6390 nM.

Take `CNc1ccc2ncnc(Nc3cccc(C)c3)c2c1` [4-[(3-methylphenyl)amino]-6-(methylamino)quinazoline]: the IC50 worked out at 2070 nM. This IC50 is about 3.1-fold lower than that of the compound before.

In turn, `CNc1ccc2ncnc(Nc3cccc(Cl)c3)c2c1` [4-[(3-chlorophenyl)amino]-6-(methylamino)quinazoline] gave an IC50 of 890 nM.

Compound `O=NN(CCCl)C(=O)Nc1ccc2ncnc(Nc3cccc(Br)c3)c2c1` [1-(2-chloroethyl)-1-nitroso-3-{[4-(3-bromophenyl)amino]quinazolin-6-yl}urea] gave a half-inhibitory concentration (IC50) of 1150 nM.

The compound `Cc1cccc(Nc2ncnc3ccc(NC(=O)N(CCCl)N=O)cc23)c1` [1-(2-Chloroethyl)-1-nitroso-3-{[4-(3-methylphenyl)amino]quinazolin-6-yl}urea] displayed an IC50 of 12200 nM. This IC50 lies about 11-fold higher than the previous one.

`Nc1ccc2ncnc(Nc3cccc(Cl)c3)c2c1` displayed an IC50 of 3290 nM.
